The results in this text go back to patent publication US20160368870A1, “OLEFIN SUBSTITUTED OXINDOLES HAVING AMPK ACTIVITY” (BOEHRINGER INGELHEIM INTERNATIONAL GMBH, priority 2013, published 2016).

T1 sequence (Q9Y478 whole entry): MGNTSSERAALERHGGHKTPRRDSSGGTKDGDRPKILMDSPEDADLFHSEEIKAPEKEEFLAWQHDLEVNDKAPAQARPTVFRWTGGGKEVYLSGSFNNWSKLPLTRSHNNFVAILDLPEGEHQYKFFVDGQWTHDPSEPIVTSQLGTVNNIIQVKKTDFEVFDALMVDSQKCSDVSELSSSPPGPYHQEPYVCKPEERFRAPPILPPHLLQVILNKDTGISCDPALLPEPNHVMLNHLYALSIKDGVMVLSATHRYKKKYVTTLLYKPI
T1 sequence (Q13131 whole entry): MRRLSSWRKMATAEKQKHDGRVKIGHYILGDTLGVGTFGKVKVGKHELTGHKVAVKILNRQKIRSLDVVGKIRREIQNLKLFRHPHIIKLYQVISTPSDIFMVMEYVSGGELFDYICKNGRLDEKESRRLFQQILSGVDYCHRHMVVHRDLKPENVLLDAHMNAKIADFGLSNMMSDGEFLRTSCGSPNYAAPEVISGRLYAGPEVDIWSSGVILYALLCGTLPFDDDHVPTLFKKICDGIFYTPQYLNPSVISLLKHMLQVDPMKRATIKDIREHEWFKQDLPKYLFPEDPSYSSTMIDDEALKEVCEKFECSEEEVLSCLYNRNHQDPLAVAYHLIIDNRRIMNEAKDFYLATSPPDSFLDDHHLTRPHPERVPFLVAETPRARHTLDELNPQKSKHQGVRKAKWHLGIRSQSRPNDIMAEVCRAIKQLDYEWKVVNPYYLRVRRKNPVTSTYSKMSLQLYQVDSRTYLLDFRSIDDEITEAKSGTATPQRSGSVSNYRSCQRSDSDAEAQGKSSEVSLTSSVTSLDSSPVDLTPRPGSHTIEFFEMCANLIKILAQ
T1 sequence (P54619 whole entry partner): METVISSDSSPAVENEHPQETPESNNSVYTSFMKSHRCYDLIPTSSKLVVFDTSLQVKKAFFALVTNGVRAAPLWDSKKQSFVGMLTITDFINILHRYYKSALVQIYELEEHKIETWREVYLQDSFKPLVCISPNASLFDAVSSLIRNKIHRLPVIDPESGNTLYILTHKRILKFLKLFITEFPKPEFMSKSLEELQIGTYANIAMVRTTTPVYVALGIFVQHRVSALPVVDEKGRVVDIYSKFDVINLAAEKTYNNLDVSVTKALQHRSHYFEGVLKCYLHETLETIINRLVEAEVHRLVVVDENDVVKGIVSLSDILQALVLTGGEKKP

The test addresses T1, AMPK beta 1 (Homo sapiens, UniProt Q13131+Q9Y478).
T1 construct: in-cell-ELISA for phospho-ACC (Acetyl-CoA carboxylase 1) in HepG2 cells (liver); endogenous in cells; host or cells: HepG2
Description: in-cell-ELISA for phospho-ACC, Activity beta 1. Particulars: 2 h, serum free DMEM, percentage activation over vehicle control, cell line not given (HepG2 or C2C12 myotubes). In kind it is cell-based. As to the method: Activation of AMPK by various compounds were measured using in-cell-ELISA for phospho-ACC (Acetyl-CoA carboxylase 1) in HepG2 cells (liver) and fully differentiated myotubes (C2C12 cells) grown in 96 well plate. Cells were treated with 1 μM of the molecule for 2 h in serum free DMEM media. After methanol fixation, cells were blocked with BSA followed by addition of anti-phospho ACC antibody (Cell Signaling) and HRP conjugated secondary antibody. Absorbance values taken at 450 nm and were normalized with total DNA (Hoechest stain). Results were expressed as percentage activation over vehicle control.
A general note: ELISA stands for enzyme-linked immunosorbent assay.
`O=C(O)Cc1cccc(C=C2C(=O)Nc3cc(F)c(-c4ccc(-c5ccccc5O)cc4)cc32)c1` [Example 5] displayed an activation at 1 µM greater than 40%.

As for `Cn1cc(C=C2C(=O)N(CCO)c3cc(Cl)c(-c4ccc(-c5ccccc5O)cc4)cc32)cc1C(=O)O` [Example 26], the activation at 1 µM is less than 20%.

In turn, `O=C1Nc2cc(Cl)c(-c3ccc(-c4ccccc4O)cc3)cc2C1=Cc1c[nH]c(C(=O)O)c1` [Example 16] returned an activation at 1 µM of less than 20%.

As to `Cc1ccc(C=C2C(=O)Nc3cc(Cl)c(-c4ccc(-c5ccccc5O)cc4)cc32)cc1C(=O)O` [Example 9], the activation at 1 µM was greater than 40%.

`COc1ccc(C=C2C(=O)Nc3cc(Cl)c(-c4ccc(-c5ccc(-n6ccnc6C)cc5)cc4)cc32)cc1CC(=O)O` [Example 66] came in with an activation at 1 µM of less than 20%.

`Cn1ccc(C=C2C(=O)Nc3cc(Cl)c(-c4ccc(-c5ccccc5O)cc4)cc32)c1` [Example 19] had an activation at 1 µM greater than 40%.

As for `Cc1ccc(C=C2C(=O)Nc3cc(F)c(-c4ccc(-c5ccccc5O)cc4)cc32)cc1CC(=O)O` [Example 3], the activation at 1 µM is greater than 40%.

On to `C/C(=C1/C(=O)Nc2cc(F)c(-c3ccc(-c4ccccc4O)cc3)cc21)c1cccc(CC(=O)N2CCCC2)c1` [Example 24, (3Z)-6-Fluoro-5-(2′-hydroxybiphenyl-4-yl)-3-(1-{3-[2-oxo-2-(pyrrolidin-1-yl)ethyl]phenyl}ethylidene)-1,3-dihydro-2H-indol-2-one], for which the activation at 1 µM was less than 20%.

Compound `Cc1ccc(C=C2C(=O)Nc3cc(Cl)c(-c4ccc(-c5ccccc5O)nc4)cc32)cc1CC(=O)O` [Example 33] came in with an activation at 1 µM of less than 20%.

For `O=C1Nc2cc(Cl)c(-c3ccc(-c4ccccc4O)cc3)cc2C1=Cc1ccc(C(=O)O)[nH]1` [Example 15], the activation at 1 µM is less than 20%.

In the case of `Cc1ccc(C=C2C(=O)Nc3cc(Cl)c(-c4ncc(-c5ccccc5O)cn4)cc32)cc1CC(=O)O` [Example 45], the activation at 1 µM is less than 20%.

Regarding `Cn1c(C=C2C(=O)Nc3cc(Cl)c(-c4ccc(-c5ccccc5O)cc4)cc32)ccc1C(=O)O` [Example 14], the activation at 1 µM was 20 to 40%.

`Cc1ccc(C=C2C(=O)Nc3cc(Cl)c(-c4ccc(-c5ccc(-n6cncn6)cc5)cc4)cc32)cc1CC(=O)O` [Example 50] came in with an activation at 1 µM of 20 to 40%.

The compound `Cc1ccc(C=C2C(=O)Nc3cc(Cl)c(-c4ccc(-c5ccncc5)cc4)cc32)cc1CC(=O)O` [Example 39] displayed an activation at 1 µM of 20 to 40%.

Compound `COc1ccc(C=C2C(=O)Nc3cc(Cl)c(-c4ccc(-c5ccc(-n6cccn6)cc5)cc4)cc32)cc1CC(=O)O` [Example 49] had an activation at 1 µM greater than 40%.

As to `Cc1ccc(C=C2C(=O)Nc3cc(F)c(-c4ccc(-c5ccncc5)cc4)cc32)cc1CC(=O)O` [Example 44], the activation at 1 µM was less than 20%.

In turn, `Cn1ccc(C=C2C(=O)N(CC(=O)O)c3cc(Cl)c(-c4ccc(-c5ccccc5O)cc4)cc32)c1` (racemic) [Example 25, {(3E/32)-6-Chloro-5-(2′-hydroxybiphenyl-4-yl)-3-[(1-methyl-1H-pyrrol-3-yl)methylidene]-2-oxo-2,3-dihydro-1H-indol-1-yl}acetic acid] came in with an activation at 1 µM of less than 20%.

Consider `O=C1Nc2cc(Cl)c(-c3ccc(-c4ccccc4O)cc3)cc2C1=Cc1csc(C(=O)O)n1` [Example 22], for which the activation at 1 µM is less than 20%.

Regarding `Cc1ccc(C=C2C(=O)Nc3cc(Cl)c(-c4ccc(-c5ccccc5O)cc4)nc32)cc1CC(=O)O` [Example 36], the activation at 1 µM fell in the range of 20 to 40%.

The compound `COc1ccc(C=C2C(=O)Nc3cc(Cl)c(-c4ccc(-c5ccccc5O)cc4)nc32)cc1C(=O)O` [Example 38] returned an activation at 1 µM of 20 to 40%.

`Cc1ccc(C=C2C(=O)Nc3cc(Cl)c(-c4ccc(-c5ccccc5O)cn4)cc32)cc1C(=O)O` [Example 32] returned an activation at 1 µM of less than 20%.

As for `O=C(O)COc1cccc(C=C2C(=O)Nc3cc(Cl)c(-c4ccc(-c5ccccc5O)cc4)cc32)c1` [Example 10], the activation at 1 µM is less than 20%.

With `COc1ccc(C=C2C(=O)Nc3cc(F)c(-c4ccc(-c5ccccc5O)cc4)cc32)cc1CC(=O)O` [Example 7], the activation at 1 µM was greater than 40%.

Take `COc1ccc(C=C2C(=O)Nc3cc(Cl)c(-c4ncc(-c5ccccc5O)cn4)cc32)cc1CC(=O)O` [Example 46]: the activation at 1 µM is less than 20%.

In turn, `Cc1ccc(C=C2C(=O)Nc3cc(Cl)c(-c4ccc(-c5ccccc5O)cc4)cc32)cc1CC(=O)O` (racemic) [Example 1, (5-{(E/Z)-[6-Chloro-5-(2′-hydroxybiphenyl-4-yl)-2-oxo-1,2-dihydro-3H-indol-3-ylidene]methyl}-2-methylphenyl)acetic acid] yielded an activation at 1 µM greater than 40%.

With `COc1ccc(C=C2C(=O)Nc3cc(Cl)c(-c4ccc(-c5ccccc5O)cc4)nc32)cc1CC(=O)O` [Example 37], the activation at 1 µM was greater than 40%.

`CN1C(=O)C(=Cc2cc(C(=O)O)n(C)c2)c2cc(-c3ccc(-c4ccccc4O)cc3)c(Cl)cc21` [Example 29] yielded an activation at 1 µM of less than 20%.

Take `Cn1cc(C=C2C(=O)Nc3cc(Cl)c(-c4ccc(-c5ccc(-n6cncn6)cc5)cc4)cc32)cc1C(=O)O` [Example 63]: the activation at 1 µM is greater than 40%.

In turn, `COc1ccc(C=C2C(=O)Nc3cc(Cl)c(-c4ccc(-c5ccc(-n6cncn6)cc5)c(F)c4)cc32)cc1CC(=O)O` [Example 60] returned an activation at 1 µM greater than 40%.

Turning to `Cc1ccc(C=C2C(=O)Nc3cc(F)c(-c4ccc(-c5ccccc5O)cc4)cc32)cc1C(=O)O` [Example 2], the activation at 1 µM is 20 to 40%.

For the compound `Cn1nc(C=C2C(=O)Nc3cc(Cl)c(-c4ccc(-c5ccccc5O)cc4)cc32)cc1C(=O)[O-].[Na+]` (mixture of isomers) [Example 21, Sodium 3-{(E/Z)-[6-chloro-5-(2′-hydroxybiphenyl-4-yl)-2-oxo-1,2-dihydro-3H-indol-3-ylidene]methyl}-1-methyl-1H-pyrazole-5-carboxylate], the “Activity beta 1 (at 1 uM)” value is “* (* <20)”.

For the compound `CC(=C1C(=O)Nc2cc(F)c(-c3ccc(-c4ccccc4O)cc3)cc21)c1cccc(CC(=O)O)c1` [Example 8], the activation at 1 µM is less than 20%.

On to `Cn1cc(C=C2C(=O)Nc3cc(Cl)c(-c4ccc(-c5ccccc5)cc4)cc32)cc1C(=O)O` [Example 23], for which the activation at 1 µM was less than 20%.

Compound `Cc1ccc(C=C2C(=O)Nc3cc(Cl)c(-c4ccc(-c5ccccc5O)cn4)cc32)cc1CC(=O)O` [Example 31] came in with an activation at 1 µM of less than 20%.

For the compound `Cc1ccc(C=C2C(=O)Nc3cc(F)c(-c4ccc(-c5ccc(-n6ccnn6)cc5)cc4)cc32)cc1C(=O)O` [Example 64], the activation at 1 µM is greater than 40%.

`Cn1cc(CC(=O)O)cc1C=C1C(=O)Nc2cc(Cl)c(-c3ccc(-c4ccccc4O)cc3)cc21` [Example 17] came in with an activation at 1 µM of less than 20%.

Regarding `Cn1nc(/C=C2\C(=O)Nc3cc(Cl)c(-c4ccc(-c5ccccc5O)cc4)cc32)cc1C(=O)O` [Example 20, 3-{(Z)-[6-chloro-5-(2′-hydroxybiphenyl-4-yl)-2-oxo-1,2-dihydro-3H-indol-3-ylidene]methyl}-1-methyl-1H-pyrazole-5-carboxylic acid], the activation at 1 µM was less than 20%.

As for `Cc1ccc(C=C2C(=O)Nc3cc(F)c(-c4ccc(-c5ccc(-n6cccn6)cc5)cc4)cc32)cc1C(=O)O` [Example 61], the activation at 1 µM is greater than 40%.

`O=C(O)Cc1ccc(C=C2C(=O)Nc3cc(F)c(-c4ccc(-c5ccccc5O)cc4)cc32)cc1` [Example 4] came in with an activation at 1 µM of less than 20%.

The compound `Cc1ccc(C=C2C(=O)Nc3cc(F)c(-c4ccc(-c5ccc(-n6cncn6)cc5)cc4)cc32)cc1C(=O)O` [Example 65] had an activation at 1 µM greater than 40%.

Turning to `Cn1cc(C=C2C(=O)Nc3cc(F)c(-c4ccc(-c5ccncc5)cc4)cc32)cc1C(=O)O` [Example 43], the activation at 1 µM was less than 20%.

For the compound `Cc1ccc(C=C2C(=O)Nc3cc(F)c(-c4cccc(-c5ccccc5O)c4)cc32)cc1CC(=O)O` (single isomer, unassigned) [Example 30, (5-{(E/Z)-[6-Fluoro-5-(2′-hydroxybiphenyl-3-yl)-2-oxo-1,2-dihydro-3H-indol-3-ylidene]methyl}-2-methylphenyl)acetic acid], the activation at 1 µM was less than 20%.

In turn, `Cc1ccc(C=C2C(=O)Nc3cc(Cl)c(-c4ccc(-c5ccccc5O)cc4)cc32)cc1` [Example 18] gave an activation at 1 µM of less than 20%.

Consider `Cn1c(C=C2C(=O)Nc3cc(Cl)c(-c4ccc(-c5ccc(-n6cncn6)cc5)cc4)cc32)ccc1C(=O)O` [Example 69], for which the activation at 1 µM is greater than 40%.

Compound `O=C(O)Cc1cccc(C=C2C(=O)Nc3cc(Cl)c(-c4ccc(-c5ccc(-n6cncn6)cc5)cc4)cc32)c1` [Example 52] yielded an activation at 1 µM greater than 40%.

Turning to `O=C(O)Cc1cc(C=C2C(=O)Nc3cc(Cl)c(-c4ccc(-c5ccccc5O)cc4)cc32)ccc1O` (racemic) [Example 12, (5-{(E/Z)-[6-Chloro-5-(2′-hydroxybiphenyl-4-yl)-2-oxo-1,2-dihydro-3H-indol-3-ylidene]methyl}-2-hydroxyphenyl)acetic acid], the activation at 1 µM was less than 20%.

`COc1ccc(C=C2C(=O)Nc3cc(Cl)c(-c4ccc(-c5ccccc5O)cn4)cc32)cc1CC(=O)O` [Example 34]: the activation at 1 µM was less than 20%.

`COc1ccc(C=C2C(=O)Nc3cc(F)c(-c4ccc(-c5ccc(-n6cncn6)cc5)cc4)cc32)cc1CC(=O)O` [Example 59]: the activation at 1 µM was greater than 40%.

Take `O=C(O)Cc1cccc(C=C2C(=O)Nc3cc(Cl)c(-c4ccc(-c5ccccc5O)nc4)cc32)c1` [Example 35]: the activation at 1 µM was less than 20%.
